From patent US10369161B2, “Use of 2-methylene-19-NOR-(20S)-1-alpha,25-dihydroxyvitamin D3 to treat primary hyperparathyroidism” (Wisconsin Alumni Research Foundation, priority 2014, dated 2019) come the findings set out here.

Holding throughout (assay type): in vivo, human
The subject of series [1] is serum parathyroid hormone (PTH). The series can be described thus: Phase 1B Dose-Finding Study in Postmenopausal Women: serum PTH in subjects with >60 pg/ml serum PTH at baseline. As to conditions: after 28 days. As to the method: (§1) Reference is made to Zella et al., “Novel, Selective Vitamin D Analog Suppresses Parathyroid Hormone in Uremic Animals and Postmenopausal Women, Am J. Nephrology 2014; 39:476-483, May 17, 2014, the content of which is incorporated herein by reference in its entirety. Zella et al. discloses the results from a Phase 1B Dose-Finding Study in Postmenopausal Women in which the participants were administered various doses of 2MD and afterwards, serum parathyroid hormone (PTH) levels and serum calcium levels were monitored. In Zella et al.'s study, post-menopausal women were treated orally once daily with 2MD, calcitriol, or placebo for 28 days. Serum samples for PTH analysis were collected at baseline and 2, 7, 14, and 28 days after the first dose was administered.
In FIG. 1 of the present application, the results from the Phase 1B Dose-Finding Study in Postmenopausal Women from Zella et al. were plotted using only data from subjects that would be classified as having primary hyperparathyroidism or on a watch list for having primary hyperparathyroidism (i.e., subjects having >60 pg/ml serum PTH at baseline). In FIG. 1, the number of subjects administered each dose of 2MD, calcitriol, or placebo, consisted of the following: 0.05 μg 2MD-2 subjects, 0.11 μg 2MD-3 subjects; 0.17 μg 2MD-4 subjects; 0.44 μg 2MD-2 subjects; 0.5 μg calcitriol-1 subject; and placebo-1 subject. As indicated, PTH levels in the subjects administered 2MD at: doses of 0.11 μg, 0.17 μg, and 0.4 μg decreased over time at a level corresponding, to the dose of 2MD. After 28 days, a dose of 2MD of 0.11 μg, 0.17 μg, and. […] (See FIG. 2 and FIG. 3). In summary, 2MD could be administered orally at a daily dose of 0.11 μg-0.44 μg to treat subjects having primary hyperparathyroidism or at risk, for developing primary hyperparathyroidism.

A short description of series [2]: Phase 1B Dose-Finding Study in Postmenopausal Women: serum calcium levels. Conditions: baseline vs 28 days, orally once daily, subjects with >60 pg/ml serum PTH at baseline. On the procedure: as §1
(§2) In FIG. 1 of the present application, the results from the Phase 1B Dose-Finding Study in Postmenopausal Women from Zella et al. were plotted using only data from subjects that would be classified as having primary hyperparathyroidism or on a watch list for having primary hyperparathyroidism (i.e., subjects having >60 pg/ml serum PTH at baseline). In FIG. 1, the number of subjects administered each dose of 2MD, calcitriol, or placebo, consisted of the following: 0.05 μg 2MD-2 subjects, 0.11 μg 2MD-3 subjects; 0.17 μg 2MD-4 subjects; 0.44 μg 2MD-2 subjects; 0.5 μg calcitriol-1 subject; and placebo-1 subject. […]

A short description of series [3]: Phase 1B Dose-Finding Study in Postmenopausal Women: serum phosphate levels. Conditions: baseline vs 28 days, orally once daily, subjects with >60 pg/ml serum PTH at baseline. On the procedure: as §1, §2

Molecules are shown by their SMILES.

As for `C=C1[C@H](O)CC(=C/C=C2\CCC[C@@]3(C)C2CCC3[C@@H](C)CCCC(C)(C)O)C[C@H]1O` (stereo partly drawn) [2MD, 2-methylene-19-nor-(20S)-1α,25-dihydroxyvitamin D3], in series [1] (0.05 μg orally once daily), the “increase in PTH” value came out at 16%. For the same compound, the “decrease in PTH” value in series [1] (0.11 μg orally once daily) is −7%; in series [1] (0.17 μg orally once daily), −31%; in series [1] (0.4 μg orally once daily), −44%. For the same compound, the “rise in serum calcium levels” value in series [2] was “without increasing serum calcium”. In series [3], the “rise in serum phosphate levels” value is “without increasing serum calcium or serum phosphate”.
In the case of `C=C1/C(=C\C=C2/CCC[C@]3(C)[C@@H]([C@H](C)CCCC(C)(C)O)CC[C@@H]23)C[C@@H](O)C[C@@H]1O` [calcitriol, reference compound], the “increase in PTH” value in series [1] (0.5 μg orally once daily) worked out at 15%.
